In PubChem BioAssay AID179 (DTP/NCI, 2004) one finds EC50, IC50 and outcome data, which are given here for 71 molecules.

This assay relates to CEM cells HIV-1 protection, formazan growth assay. Kind of assay: NCI AIDS Antiviral Assay. The note with it: for IC50: measured here: growth of uninfected CEM cells. The gist of the method: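 Human CEM cells, uninfected and HIV-1-infected, received five drug concentrations, and growth was read by soluble formazan assay. Compounds giving at least 50% protection were retested; reproducible 100% protection defined confirmed active.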

SMILES strings stand for the structures. Activity calls are given as the source filed them.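 The calls were made as follows: active = compounds giving half or more protection of infected cells from virus-caused growth loss, again on retest; inactive = the rest.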 Where a SMILES comes first, the peptide text is derived from it. Bridges are numbered along the chain shown (N, C = ends). [ ]: non-standard residue; d: D form. The star is where a group is joined. Cbz = O=C(OCc1ccccc1)*; Dab = NCC[CH](N)C(=O)O; Bn = c1ccc(C*)cc1 Bounds are passed on as bounds.

By EC50 is commonly meant the concentration giving half of the maximal effect. For orientation: IC50 means the midpoint of a concentration-inhibition curve.

On to `COc1cc2cc(C(=O)N3CC(CCl)c4c3cc(NC(=O)OCc3ccc([N+](=O)[O-])cc3)c3ccccc43)[nH]c2c(OC)c1OC` (configuration not stated), for which the EC50 was more than 200 µM and the IC50 stood at 2.88 µM.
As to `NC(=O)c1c(-c2ccccc2)c(-c2ccccc2)cc2c(=O)c3ccccc3[nH]c12`, the outcome was inactive.
For `O=c1c2c3c(sc2nc2n1N=C(c1ccc(Br)cc1)CS2)CCCC3`, the EC50 was more than 200 µM and the IC50 is more than 200 µM.
For the molecule `Cn1cc([N+](=O)[O-])cc1C(=O)Nc1cc(C(=O)Nc2ccc(S(=O)(=O)O)c3cc(S(=O)(=O)O)ccc23)n(C)c1`, the EC50 is more than 398 µM and the IC50 is 178 µM.
Take `CCCCCCCCCCCCC(CC)CCCCC(=O)O` (configuration not stated): the result was inactive.
Consider `CC1=NNC(=O)C1C1C(=O)NN=C(c2c[nH]c3ccccc23)C1Br` (configuration not stated), for which the EC50 was more than 200 µM and the IC50 came to 95.5 µM.
The matching figures for `S=c1sc2c(s1)SCCCCSCCCCSc1sc(=S)sc1SCCCCSCCCCS2`: more than 200 µM and more than 200 µM.
In the case of `C/C=C1\CNC2Cc3c([nH]c4ccccc34)C(=O)CC1C2C(=O)OC` (configuration not stated), the result was inactive.
In the case of `c1ccc(C2=NN3CN(N2)c2ccccc2OCCCOc2ccccc23)cc1`, the EC50 is more than 200 µM and the 50% inhibitory concentration (IC50) worked out at 105 µM.
On to `COc1cc(C=C2N=C(c3ccccc3)N(n3c(-c4ccccc4)nc4ccccc4c3=O)C2=O)cc(OC)c1OC`, for which the EC50 was more than 200 µM and the IC50 was 30.9 µM.
With `Cn1nc(-c2ccccc2)c(C(=O)/C=C/c2ccccc2)c(N2CCCC2)c1=O`, the EC50 is 12.6 µM and the half-maximal inhibitory concentration (IC50) turned out to be 52.5 µM.
In the case of `O=[N+]([O-])c1ccc(CSC2=C(c3ccc(Cl)cc3)S/C(=C3\SC(SCc4ccc([N+](=O)[O-])cc4)=C(c4ccc(Cl)cc4)S3)S2)cc1`, the EC50 was more than 200 µM and the half-inhibitory concentration (IC50) was more than 200 µM.
In the case of `COC(=O)C(=O)C(CC(=O)Nc1cc(Cl)ccc1Cl)C(=O)OC` (configuration not stated), the EC50 is more than 7.59 µM and the IC50 was more than 7.59 µM.
For the molecule `COc1ccc(Nc2nc3c(N)cc(C(F)(F)F)cc3nc2-c2ccccc2)cc1OC`, the EC50 was more than 16.2 µM and the half-inhibitory concentration (IC50) was more than 16.2 µM.
For `O=S(=O)(O)C(O)CCC(O)S(=O)(=O)O` (configuration not stated), the EC50 was more than 200 µM and the IC50 turned out to be 40.7 µM.
The like results for `O=C1OC(c2ccccc2)=N/C1=C\c1ccco1` were, in that order, more than 75.9 µM and 60.3 µM.
The matching figures for `O=C(c1ccccc1SSc1ccccc1C(=O)N1CSC[C@@H]1CO)N1CSC[C@H]1CO`: more than 200 µM and 107 µM.
The matching figures for `N#CCCN(CCN(CCN(C(=O)Nc1ccccc1)c1ccccc1)C(=O)Nc1ccccc1)C(=O)Nc1ccccc1`: more than 200 µM and 9.33 µM.
As for `O=S1CCS(=O)CCS(=O)CC1` (configuration not stated), the EC50 is more than 16.6 µM and the half-maximal inhibitory concentration (IC50) is more than 16.6 µM.
For `CC(C)CC1NC(=O)C(Cc2ccccc2)NC(=O)C(Cc2ccccc2)NC(=O)C(NC(=O)C(Cc2ccc(OCc3ccccc3)cc2)NC(=O)OCc2ccccc2)CCNC1=O` (configuration not stated) (Cbz-Y(Bn)[Dab]FFL; lactam 2-C; configuration not given here), the EC50 was more than 100 µM and the 50% inhibitory concentration (IC50) is more than 100 µM.
With `CCC(C)c1c(NS(=O)(=O)c2ccc(C)cc2)o[nH]c1=O` (configuration not stated), the EC50 is more than 200 µM and the half-inhibitory concentration (IC50) is more than 200 µM.
In the case of `O=c1[nH]c2cc(Cl)ccc2nc1/C(=N\O)C(O)c1ccc([N+](=O)[O-])cc1` (configuration not stated), the outcome was inactive.
In the case of `COc1ccc2c(c1)CCc1cc(OC)ccc1/[N+]([O-])=[N+]\2[O-]`, the EC50 is more than 17.4 µM and the IC50 is more than 17.4 µM.
With `CC(C)(C)OC(=O)[C@@H]1ON2O[C@H](OC3CCCC3(c3ccccc3)c3ccccc3)C[C@H]3OC(=O)[C@@H]1[C@H]32` (some centres not stated), the EC50 is more than 200 µM and the concentration for half-maximal inhibition (IC50) came to 31.6 µM.
`Cc1cc(Br)c2nsnc2c1[N+](=O)[O-]`: the EC50 was more than 26.3 µM and the 50% inhibitory concentration (IC50) is 2.57 µM.
For the molecule `CN(C)CCC(=O)c1ccc(Cl)cc1`, the EC50 is more than 107 µM and the IC50 stood at 27.5 µM.
The matching figures for `CO[C@@H]1C[C@H]2[C@@H]3CC[C@H]([C@H](C)COC(C)=O)[C@@]3(C)CC[C@@H]2[C@@]2(C)CC[C@H]3C[C@]312`: more than 100 µM and more than 100 µM.
Consider `CC(C)=CCC12Cc3ccc(O)cc3C(C(C)CN1)C2C` (configuration not stated), for which the EC50 was more than 200 µM and the half-maximal inhibitory concentration (IC50) was more than 200 µM.
For the molecule `CC(SS(=O)(=O)O)C(N)=NCc1ccccc1` (configuration not stated), the EC50 was more than 200 µM and the IC50 worked out at 67.6 µM.
In the case of `O=c1[nH][nH]c(=O)c2nc3c(nc12)c1nc2c(=O)[nH][nH]c(=O)c2nc1c1nc2c(=O)[nH][nH]c(=O)c2nc31`, the outcome was inactive.
Regarding `O=C(CC(=O)C1CCOC1=O)C(=O)Nc1ccc(Cl)cc1` (configuration not stated), the result was inactive.
Turning to `COc1ccc2oc(=O)c(-c3csc(C)n3)cc2c1`, the EC50 was more than 151 µM and the half-maximal inhibitory concentration (IC50) turned out to be 138 µM.
The matching figures for `CC[C@@]12N=C(N(C)C)C[C@]1(O)ON=C2C`: more than 200 µM and more than 200 µM.
The like results for `N#CC(C#N)=CNC(=S)c1ccncc1` were, in that order, more than 200 µM and 166 µM.
The matching figures for `COc1ccccc1/C=C(\C#N)C(=O)O`: more than 646 µM and 251 µM.
As to `CN1C(c2ccccc2)(c2ccccc2)c2ccccc2S1(=O)=O`, the EC50 was more than 200 µM and the 50% inhibitory concentration (IC50) came out at 50.1 µM.
Turning to `O=c1c2ccccc2oc2ccccc12`, the EC50 is more than 26.3 µM and the IC50 was more than 26.3 µM.
In the case of `Cc1cc(C)cc(-n2c3nc(=O)n(C)c(=O)c-3nc3ccccc32)c1`, the result was inactive.
For the molecule `CCCCCSSSCCCCC`, the EC50 is more than 200 µM and the IC50 stood at 34.7 µM.
For `CCOC(=O)N1CCC(=O)C[C@@H]1C/C=C/P1(=O)O[C@H](c2ccccc2)C(C)N1C(C)C` (some centres not stated), the result was inactive.
`OC1CSCCCSCCSCCCSC1`: the EC50 was more than 17.4 µM and the 50% inhibitory concentration (IC50) was more than 17.4 µM.
For `CCOC(OCC)[C@H](N)[C@@H](O)[C@@H](O)[C@H]1COC(C)(C)O1`, the EC50 is more than 200 µM and the 50% inhibitory concentration (IC50) is more than 200 µM.
On to `[O-][n+]1onc(-c2ccccc2)c1-c1ccccc1`, for which the EC50 is more than 151 µM and the IC50 is more than 151 µM.
Regarding `Cc1nc2c(nc1C)C(=O)C(Br)=CC2=O`, the result was inactive.
For `COc1ccc(/C=C(\C#N)c2nc3ccccc3c(=O)[nH]2)cc1`, the outcome was active.
For the molecule `COc1cc(C2c3cc4c(cc3C(O)C3CCC(=O)N23)OCO4)cc(OC)c1OC` (configuration not stated), the EC50 was more than 200 µM and the half-inhibitory concentration (IC50) was 18.6 µM.
For `COc1ccc(/C=C\c2cc(OC)c(OC)c(OC)c2)cc1OP(=O)(O)O`, the EC50 was more than 35.5 µM and the IC50 is 0.0282 µM.
As to `COc1ccccc1NCC(=O)Nn1c(C)nc2ccc(S(=O)(=O)Nc3ccccc3OC)cc2c1=O`, the EC50 was more than 200 µM and the IC50 worked out at 148 µM.
The like results for `CO[C@@]1(c2ccccc2)O[C@H]2OCCC2[C@H]1c1ccc(Cl)cc1` (some centres not stated) were, in that order, more than 11.5 µM and more than 11.5 µM.
The like results for `COc1ccc(N2C(=O)C3c4[nH]c5ccc(F)cc5c4C4CCC(c5ccccc5)CC4C3C2=O)cc1` (configuration not stated) were, in that order, more than 200 µM and 36.3 µM.
As to `O=C1NC(N2CCCC(CO)C2)=N/C1=C\c1cccs1` (configuration not stated), the EC50 was more than 200 µM and the IC50 is more than 200 µM.
Regarding `CCOC(=O)c1nc2ccc(C(F)(F)F)cc2nc1NCc1ccc(Cl)c(Cl)c1`, the EC50 was more than 100 µM and the IC50 was 17 µM.
Take `CC(C)(C)c1ccc(C2(Br)C(=O)NC(=O)C2=O)cc1` (configuration not stated): the EC50 is more than 200 µM and the IC50 is more than 200 µM.
For the molecule `CCc1c2c(cc3c1CC1(C3)Cc3cc4c(c(C(=O)OC)c3C1)CCCC4)CCCC2` (configuration not stated), the EC50 is more than 200 µM and the IC50 is 166 µM.
The matching figures for `COC(=O)c1ccc(OCc2nc3ccccc3[nH]2)cc1`: more than 200 µM and 75.9 µM.
For the molecule `Cc1cc(C)nc(NS(=O)(=O)c2ccc(N=c3c4ccccc4n(Cc4ccccc4)c4ccccc34)cc2)n1`, the outcome was inactive.
Still for that read-out and setting: the entry for `[CH3][Sn]([CH3])([CH3])[O]C(=O)C(O)c1ccccc1` (configuration not stated) is “inactive”.
`Cc1ccccc1C=C1C(=O)NC(=O)NC1=O`: the EC50 was more than 407 µM and the half-maximal inhibitory concentration (IC50) is more than 407 µM.
On to `CN(C)CC1CC(=O)C(CN(C)C)CC1=O` (configuration not stated), for which the EC50 was more than 832 µM and the IC50 amounted to 2.51 µM.
Regarding `O=C1CCCCC1CN1CCCCC1` (configuration not stated), the outcome was inactive.
`COC1C(=O)CCC2(CO2)C1(O)C1(C)OC1CCC(C)C` (configuration not stated): the EC50 was more than 200 µM and the IC50 worked out at 4.37 µM.
The like results for `C(=C/[PH+](c1ccccc1)c1ccccc1)/[PH+](c1ccccc1)c1ccccc1.C(=C/[PH+](c1ccccc1)c1ccccc1)/[PH+](c1ccccc1)c1ccccc1.C(=C/[PH+](c1ccccc1)c1ccccc1)/[PH+](c1ccccc1)c1ccccc1.[Pt]` were, in that order, more than 5.25 µM and 3.24 µM.
The matching figures for `Cc1ccccc1[P+](Cc1ccccc1)(c1ccccc1)c1ccccc1C`: more than 200 µM and 0.776 µM.
Turning to `CC(C)c1ccc(C(c2c(O)c3ccccc3oc2=O)c2c(O)c3ccccc3oc2=O)cc1`, the EC50 is more than 200 µM and the half-maximal inhibitory concentration (IC50) turned out to be 30.2 µM.
`O=C1C=C(N2CCCC2)c2cc(N3CCCC3)ncc2C1=O`: the outcome was inactive.
As to `CCC1(O)CCC2C3CC=C4CCCCC4C3CCC21C` (configuration not stated), the EC50 is more than 200 µM and the 50% inhibitory concentration (IC50) is 30.9 µM.
The like results for `COc1cc2c(cc1OC)C(C1(O)CCCCC1)NCC2` (configuration not stated) were, in that order, more than 851 µM and 457 µM.
The like results for `CC1(Cl)CC2C(CC1Sc1nnnn1-c1ccccc1)C2(C)C` (configuration not stated) were, in that order, more than 20.9 µM and more than 20.9 µM.
The like results for `O=S1(=O)/C(=C\C2CCCCC2)c2c1c(-c1ccccc1)c1ccccc1c2-c1ccccc1` were, in that order, more than 49 µM and more than 49 µM.
With `COc1cc2ccc(CC(=O)O)cc2cc1OC`, the result was inactive.
For `N#Cc1cc2c(n(NS(=O)(=O)c3ccccc3)c1=O)CCCC2`, the EC50 is more than 200 µM and the half-inhibitory concentration (IC50) was more than 200 µM.
